# According to patent publication US6951647B2, “T cell binding ligand peptides and method of inducing a cellular immune response” (Cel-Sci Corporation, priority 2001, dated 2005):
# Values joined by “and” are separate entries in the source; they are usually repeats but may differ in a detail not shown here. Equal values may be shown once.
# Columns and labels:
# [1] = system: modified HGP-30 (mH, SEQ ID NO:6); assay: Isotype analysis (ELISA) of anti-mH antibody in sera of immunized mice; type: in vivo; details: day 28 pool, with MPL
# Description: (§1) Mice in groups (5-10 animals per group as designated) are immunized with the LEAPS constructs (25 μg/dose) of SEQ ID NO's:37, 38 and 39, in 0.2 mL emulsified 1:1 with adjuvant (Seppic's ISA-51 or Corixa's microfluidized MPL S/E) on days 0 and 14. Mice are evaluated by Delayed Type of Hypersensitivity (DTH) by inoculation on day 26 with 20 μl of a solution of saline or mH (SEQ ID NO:6) (25 μg in saline) in the left or right ear respectively. The DTH response is determined by measurement of the ear thickness 48 hours later and expressed as increase in ear thickness (mm) of experimental ear compared to that of the control ear. Individual animal sera are collected for measurement of antibody on day 28, 42, 63 and 77. Sera from individual animals and group pools are evaluated for specific anti-mH antibody, for total antibody, IgG1, IgG2a and IgG3 antibody isotype and cross clade titer at selected time points as indicated.
# The results of an isotype analysis of day 42 test bleedings with G′-mH (SEQ ID NO:37), G-mH (SEQ ID NO:38), J-mH (SEQ ID NO:39), F-mH (SEQ ID NO:40) and F-HGP-30 (SEQ ID NO:41), are shown in Table 1.
# An isotype analysis for pools of day 28 test bleedings G-mH, G′-mH and m-HGP-30/KLH using either MPL S/E or ISA51 as adjuvant, are shown in Table 3.
# modified HGP-30 = assay: ELISA antibody screening of sera of immunized mice on modified HGP-30; type: in vivo; details: for ELISA test antigen Modified HGP-30: day 42 test bleeding
# Description: as §1, with “indicated. […]” for “indicated.”
# B Clade = assay: ELISA cross clade recognition by sera of immunized mice, B Clade; type: in vivo; details: for ELISA test antigen B Clade: day 42 test bleeding
# Description: as §1
# (§2) The mouse sera for the ELISA was used at a dilution of 1:200. Again, clearly, the construct provides higher signals indicative of higher levels of the antibodies that recognized other clades besides the parental one (Clade B) of mH.
# (§3) A cross clade analysis for pools of day 42 test bleedings from the same groups as used in Table 3, were obtained and the results are shown in Table 4.
# C Clade = assay: ELISA cross clade recognition by sera of immunized mice, C Clade; type: in vivo; details: for ELISA test antigen C Clade: day 42 test bleeding
# Description: as §1, §2, §3
# D Clade [2] = assay: ELISA cross clade recognition by sera of immunized mice, D Clade; type: in vivo; details: for ELISA test antigen D Clade: day 42 test bleeding, Group Average
# Description: as §1, §2, §3
# E Clade [3] = assay: ELISA cross clade recognition by sera of immunized mice, E Clade; type: in vivo; details: for ELISA test antigen E Clade: day 42 test bleeding, Group Average
# Description: as §1, §2, §3
# Peptide G [4] = assay: Specificity analysis for the TCBL carrier, ELISA plates coated with Peptide G; type: in vivo, Mice; details: for A 490 1:200 dilution on plates coated with Peptide G: Average
# Description: as §1
# A specificity analysis for the TCBL or KLH carrier for pools of day 42 test bleedings from the G-mH, G′-mH and mH/KLH, using either MPL S/E or ISA51 as adjuvant, was carried out (all sera assayed at a dilution of 1:200) and the results are shown in Table 5. […] This observation is especially significant for vaccines used on a repetitive basis, such as, either a vaccine that requires more frequent intervals between boosters for maintenance of cellular reactivity or as a therapeutic vaccine.
# D Clade [5] = assay: ELISA cross clade recognition by sera of immunized mice, D Clade; type: in vivo; details: day 42 test bleeding, individual mouse
# E Clade [6] = assay: ELISA cross clade recognition by sera of immunized mice, E Clade; type: in vivo; details: day 42 test bleeding, individual mouse
# Peptide G [7] = assay: Specificity analysis for the TCBL carrier, ELISA plates coated with Peptide G; type: in vivo, Mice; details: individual animal
# [8] = day 63 test bleeding, sera 1:200, individual mouse
substance,measurement,setting,value
"NGQ EEK AGV VST GLI GGG ATL YSV HQR IDV KDT KEA LEK IEE EQN KS (DGQEEKAGVVSTGLIGGGEAQNTTYL) [SEQ ID NO: 58, Peptide G linked by GGG spacer to modified HGP-30 (mH)]","Ig2b, serial dilution 1:800",[1],0.026
same,"Ig2b, serial dilution 1:3200",[1],0.022
same,"Ig2b, serial dilution 1:12800",[1],0.006
same,"Ig2b, serial dilution 1:51200",[1],0.007
same,"Ig2b, serial dilution 1:204800",[1],0.018
same,"Ig3, serial dilution 1:200",[1],0.265
same,"Ig3, serial dilution 1:800",[1],0.044
same,"Ig3, serial dilution 1:3200",[1],0.006
same,"Ig3, serial dilution 1:12800",[1],0.001
same,"Ig3, serial dilution 1:51200",[1],0.000
same,"Ig3, serial dilution 1:204800",[1],0.000
same,A 490 1:200 dilution on plates coated with modified HGP-30,"modified HGP-30; day 42, first set of groups (animals 4637-4648, 4674-4678), individual animal",0.257 A 490 and 0.571 A 490 and 0.065 A 490 and 0.392 A 490 and 1.008 A 490 and 0.021 A 490
same,A 490 1:200 dilution on plates coated with modified HGP-30,"modified HGP-30; day 42, first set of groups, Average",0.386 A 490
same,A 490 1:200 dilution on plates coated with modified HGP-30,"modified HGP-30; day 42, second set of groups (animals 4662-4673, 4679-4683), individual animal",0.051 A 490 and 0.052 A 490 and 1.102 A 490 and 0.005 A 490 and 0.000 A 490 (2×)
same,A 490 1:200 dilution on plates coated with modified HGP-30,"modified HGP-30; day 42, second set of groups, Average",0.202 A 490
same,ELISA test antigen Modified HGP-30,"modified HGP-30; group (A), Group Average",0.576
same,ELISA test antigen Modified HGP-30,"modified HGP-30; group (A), individual mouse",0.470 and 1.103 and 0.046 and 0.390 and 1.297 and 0.153
same,ELISA test antigen Modified HGP-30,"modified HGP-30; group (B), Group Average",0.394
same,ELISA test antigen Modified HGP-30,"modified HGP-30; group (B), individual mouse",0.187 and 0.188 and 1.848 and 0.145 and 0.000 (2×)
same,ELISA signal on modified HGP-30,modified HGP-30; [8],1.831 and 2.453 and 2.530 and 1.740 and 0.398 and 1.240 and 2.665 and 1.014 and 0.444 and 0.304
same,ELISA test antigen B Clade,"B Clade; group (A), Group Average",0.005
same,ELISA test antigen B Clade,"B Clade; group (A), individual mouse",0.000 (5×) and 0.028
same,ELISA test antigen B Clade,"B Clade; group (B), Group Average",0.022
same,ELISA test antigen B Clade,"B Clade; group (B), individual mouse",0.000 (3×) and 0.006 and 0.079 and 0.046
same,ELISA signal on B Clade,B Clade; [8],0.000 (6×) and 0.316 and 0.148 and 0.006 and 0.230
same,ELISA test antigen C Clade,"C Clade; group (A), Group Average",0.018
same,ELISA test antigen C Clade,"C Clade; group (A), individual mouse",0.000 (4×) and 0.004 and 0.104
same,ELISA test antigen C Clade,"C Clade; group (B), Group Average",0.009
same,ELISA test antigen C Clade,"C Clade; group (B), individual mouse",0.003 (2×) and 0.000 (3×) and 0.050
same,ELISA signal on C Clade,C Clade; [8],0.125 and 0.359 and 0.238 and 0.047 and 0.005 and 0.076 and 0.643 and 0.000 (3×)
same,ELISA test antigen D Clade,D Clade [2]; group (A),0.000
same,ELISA test antigen D Clade,D Clade [2]; group (B),0.002
same,ELISA signal on D Clade,D Clade [2]; [8],0.025 and 0.646 and 0.000 (6×) and 0.001 and 0.016
same,ELISA test antigen E Clade,E Clade [3]; group (A),0.000
same,ELISA test antigen E Clade,E Clade [3]; group (B),0.000
same,ELISA signal on E Clade,E Clade [3]; [8],0.000 (8×) and 0.016 and 0.504
same,A 490 1:200 dilution on plates coated with Peptide G,"Peptide G [4]; day 42, first set of groups",0.099 A 490
same,A 490 1:200 dilution on plates coated with Peptide G,"Peptide G [4]; day 42, second set of groups",0.062 A 490
same,Reactivity toward the delivery vehicle TCBL,"Peptide G [4]; day 42 sera at 1:200, Table 5, in words",minimal reactivity
same,ELISA test antigen D Clade,D Clade [5]; group (A),0.000
same,ELISA test antigen D Clade,D Clade [5]; group (B),0.005 and 0.006 and 0.000 (4×)
same,ELISA test antigen E Clade,E Clade [6]; group (A),0.000
same,ELISA test antigen E Clade,E Clade [6]; group (B),0.000
same,A 490 1:200 dilution on plates coated with Peptide G,"Peptide G [7]; day 42, first set of groups (animals 4637-4648, 4674-4678)",0.195 A 490 and 0.122 A 490 and 0.092 A 490 and 0.088 A 490 and 0.047 A 490
same,A 490 1:200 dilution on plates coated with Peptide G,"Peptide G [7]; day 42, second set of groups (animals 4662-4673, 4679-4683)",0.024 A 490 and 0.044 A 490 and 0.062 A 490 and 0.033 A 490 and 0.060 A 490 and 0.151 A 490
